The assay concerns hepatocytes. As to the kind of experiment: RNA-seq of hepatocytes treated with Phase III failure compounds. The settings on record: for significant changes in gene expression: RNA-seq of Table 36, FPKM≥0.5, log 2(fold-change)≥1, q-value≤0.05; for significant modulation of expression of any of the genes analyzed: p≤0.05; for Number (#) of genes having significantly changed expression: Phase III failure compounds, significance: FPKM≥0.5, log 2(fold-change)≥1, q-value≥0.05 (so in the source). The procedure: RNA-seq was performed to determine the effects of the compounds on hepatocytes.
Significance was determined by the criteria of FPKM≥0.5, a log 2(fold-change)≥1, and a […].

As to `COC[C@@H](c1ccc(C(F)(F)F)cc1)N1CCN(C2(C)CCN(C(=O)c3c(C)ncnc3C)CC2)C[C@@H]1C` [Vicriviroc (maleate), Vicriviroc], the “significant changes in gene expression” value is “not observed to cause any significant changes in gene expression”. Under “RNA-seq, hepatocytes”, the “significant modulation of expression of any of the genes analyzed” value is reported as “not observed to significantly modulate expression”.

As for `CCCCCCCCCCCCCCCCCCOP(=O)([O-])OC1CC[N+](C)(C)CC1` [Perifosine (KRX-0401), Perifosine], under “RNA-seq, hepatocytes”, the “significant modulation of expression of any of the genes analyzed” value was “not observed to significantly modulate expression”.

With `CN[C@@]1(C)[C@@H]2CC[C@@H](C2)C1(C)C.Cl` [TC-5214 (R-Mecamylamine hydrochloride), R-Mecamylamine hydrochloride], the “significant changes in gene expression” value was “not observed to cause any significant changes in gene expression”. For the same compound, the “significant modulation of expression of disease genes” value (RNA-seq, q≤0.05, hepatocytes, genes in the value or listed in the block) is reported as “significantly (q≤0.05) modulate expression of GCSH”. Also, the “log 2 fold change in expression of GCSH” value (RNA-seq, hepatocytes) is on record as −1.31.

Consider `CCCCCCCCCCCCCCCCOCCCOP(=O)(O)CO[C@H](CO)Cn1ccc(N)nc1=O` [CMX001 (Brincidofovir), Brincidofovir], for which the “significant changes in gene expression” value is reported as “not observed to cause any significant changes in gene expression”. Under “RNA-seq, hepatocytes”, the “significant modulation of expression of any of the genes analyzed” value was “not observed to significantly modulate expression” and the “effect on disease gene expression” value was “no effect on any disease gene”.

For `Fc1ccc(C(OCCN2CCN(CCCc3ccccc3)CC2)c2ccc(F)cc2)cc1` [Vanoxerine], under “RNA-seq, hepatocytes”, the “Number (#) of genes having significantly changed expression” value is given as 17.

Consider `CO[C@H]1C[C@@H]2CC[C@@H](C)[C@@](O)(O2)C(=O)C(=O)N2CCCC[C@H]2C(=O)O[C@H]([C@H](C)C[C@@H]2CC[C@@H](OC(=O)C(C)(CO)CO)[C@H](OC)C2)CC(=O)[C@H](C)/C=C(\C)[C@@H](O)[C@@H](OC)C(=O)[C@H](C)C[C@H](C)/C=C/C=C/C=C/1C` [Temsirolimus], for which, where the note is “RNA-seq, hepatocytes”, the “Number (#) of genes having significantly changed expression” value turned out to be 34, the “significant modulation of expression of any of the genes analyzed” value is “not observed to significantly modulate expression” and the “effect on disease gene expression” value is given as “no effect on any disease gene”.

On to `CC(C)(CO)c1cc2cc(NC(=O)C3(c4ccc5c(c4)OC(F)(F)O5)CC3)c(F)cc2n1C[C@@H](O)CO` [VX-661 (tezacaptor), tezacaptor], for which the “significant changes in gene expression” value was “not observed to cause any significant changes in gene expression”. Moreover, the “significant modulation of expression of any of the genes analyzed” value (RNA-seq, hepatocytes) is “not observed to significantly modulate expression”.
